Assay results from the Kinase Knowledgebase extract (Sharma et al. 2016).

Tests used:
EGFR [1] = molecular target: EGFR (UniProt P00533); conditions: concentration not given here
MAPK14 (human) [2] = molecular target: MAPK14 (human) (UniProt Q16539); assay: MAPK14 Kinase Inhibition
MAPK14 (human) [3] = molecular target: MAPK14 (human) (UniProt Q16539); assay: TNFalpha Inhibition; conditions: pbmc
EGFR (human) [4] = molecular target: EGFR (human) (UniProt P00533); conditions: hs-27
EGFR (human) [5] = molecular target: EGFR (human) (UniProt P00533); conditions: A431
MAPK14 (rat) = assay: MAPK Inhibiton (TNF Stimulated); conditions: iec-6, dose or concentration not given here
CDK2 [6] = molecular target: CDK2 (UniProt P24941); assay: Enzyme Assay; conditions: concentration not given here
MAPK14 [7] = molecular target: MAPK14 (UniProt Q16539); assay: MAPK Inhibition
EGFR (murine) [8] = molecular target: EGFR (murine) (UniProt P00533); conditions: nih3t3
EGFR (human) [9] = molecular target: EGFR (human) (UniProt P00533); conditions: mda-mb-468
EGFR (human) [10] = molecular target: EGFR (human) (UniProt P00533); conditions: kb
MAPK14 (murine) [11] = assay: p38 Kinase Inhibition (MAPKAPK2 / L1210/VCR Cells); conditions: dose or concentration not given here
MAPK14 (murine) [12] = assay: p38 Kinase Inhibition (ATF-2 / L1210/VCR Cells); conditions: dose or concentration not given here
EGFR [13] = molecular target: EGFR (UniProt P00533)
EGFR [14] = molecular target: EGFR (UniProt P00533); remark: listed apart in the source
EGFR [15] = molecular target: EGFR (UniProt P00533); remark: listed apart in the source
EGFR [16] = molecular target: EGFR (UniProt P00533); remark: listed apart in the source
EGFR [17] = molecular target: EGFR (UniProt P00533); remark: listed apart in the source
EGFR (human) [18] = molecular target: EGFR (human) (UniProt P00533); conditions: mda-mb-468; remark: listed apart in the source
EGFR [19] = molecular target: EGFR (UniProt P00533); remark: listed apart in the source
EGFR [20] = molecular target: EGFR (UniProt P00533); remark: listed apart in the source
EGFR [21] = molecular target: EGFR (UniProt P00533); remark: listed apart in the source
[22] = test system: MAPK14 (sprague-dawley rat); assay: Effect of the p38 Inhibitor on TNF-alpha Level following Air Inflammatory Response; conditions: dose or concentration not given here
[23] = test system: MAPK14 (sprague-dawley rat); assay: Effect of the p38 Inhibitor on IL-1beta Level following Air Inflammatory Response; conditions: dose or concentration not given here
MAPK14 [24] = molecular target: MAPK14 (UniProt Q16539); assay: Inhibition of MAPK Activity
EGFR [25] = molecular target: EGFR (UniProt P00533); remark: listed apart in the source
EGFR [26] = molecular target: EGFR (UniProt P00533); remark: listed apart in the source
EGFR [27] = molecular target: EGFR (UniProt P00533); remark: listed apart in the source
EGFR [28] = molecular target: EGFR (UniProt P00533); remark: listed apart in the source
EGFR (human) [29] = molecular target: EGFR (human) (UniProt P00533); conditions: a431
EGFR (human) [30] = molecular target: EGFR (human) (UniProt P00533); conditions: A431; remark: listed apart in the source
CDK2 [31] = molecular target: CDK2 (UniProt P24941)
EGFR (murine) [32] = molecular target: EGFR (murine) (UniProt P00533); conditions: balb/mk cells
EGFR [33] = molecular target: EGFR (UniProt P00533); remark: listed apart in the source
EGFR [34] = molecular target: EGFR (UniProt P00533); remark: listed apart in the source
EGFR (human) [35] = molecular target: EGFR (human) (UniProt P00533)
EGFR (human) [36] = molecular target: EGFR (human) (UniProt P00533); conditions: a431; remark: listed apart in the source
EGFR (human) [37] = molecular target: EGFR (human) (UniProt P00533); conditions: ovcar-8,sk-ov-3,ovcar-5,ovcar-4
EGFR (human) [38] = molecular target: EGFR (human) (UniProt P00533); remark: listed apart in the source
EGFR (human) [39] = molecular target: EGFR (human) (UniProt P00533); conditions: lox-imvi,malme-3m,sk-mel-5
EGFR (mouse) = EGFR (mouse) (UniProt P00533); conditions: 3t3
EGFR [40] = molecular target: EGFR (UniProt P00533); remark: listed apart in the source
EGFR [41] = molecular target: EGFR (UniProt P00533); remark: listed apart in the source
EGFR (human) [42] = molecular target: EGFR (human) (UniProt P00533); conditions: A431; remark: listed apart in the source
EGFR (human) [43] = molecular target: EGFR (human) (UniProt P00533); conditions: a431; remark: listed apart in the source
EGFR [44] = molecular target: EGFR (UniProt P00533); conditions: concentration not given here; remark: listed apart in the source
MAPK14 (human) [45] = molecular target: MAPK14 (human) (UniProt Q16539); assay: IL-6 Inhibition; conditions: hiv-1

MAPK14 (human), sequence (Q16539 whole entry, looked up): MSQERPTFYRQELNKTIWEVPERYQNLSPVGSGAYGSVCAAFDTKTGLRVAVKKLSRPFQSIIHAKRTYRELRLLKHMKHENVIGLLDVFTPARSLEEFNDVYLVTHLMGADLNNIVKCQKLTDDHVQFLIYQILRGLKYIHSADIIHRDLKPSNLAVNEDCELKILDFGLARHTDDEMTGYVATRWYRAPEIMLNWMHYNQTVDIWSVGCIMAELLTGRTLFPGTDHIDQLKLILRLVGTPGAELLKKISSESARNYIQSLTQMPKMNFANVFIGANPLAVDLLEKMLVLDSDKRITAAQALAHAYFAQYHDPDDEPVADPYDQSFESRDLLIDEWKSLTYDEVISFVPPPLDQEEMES
EGFR, sequence (P00533 whole entry, looked up): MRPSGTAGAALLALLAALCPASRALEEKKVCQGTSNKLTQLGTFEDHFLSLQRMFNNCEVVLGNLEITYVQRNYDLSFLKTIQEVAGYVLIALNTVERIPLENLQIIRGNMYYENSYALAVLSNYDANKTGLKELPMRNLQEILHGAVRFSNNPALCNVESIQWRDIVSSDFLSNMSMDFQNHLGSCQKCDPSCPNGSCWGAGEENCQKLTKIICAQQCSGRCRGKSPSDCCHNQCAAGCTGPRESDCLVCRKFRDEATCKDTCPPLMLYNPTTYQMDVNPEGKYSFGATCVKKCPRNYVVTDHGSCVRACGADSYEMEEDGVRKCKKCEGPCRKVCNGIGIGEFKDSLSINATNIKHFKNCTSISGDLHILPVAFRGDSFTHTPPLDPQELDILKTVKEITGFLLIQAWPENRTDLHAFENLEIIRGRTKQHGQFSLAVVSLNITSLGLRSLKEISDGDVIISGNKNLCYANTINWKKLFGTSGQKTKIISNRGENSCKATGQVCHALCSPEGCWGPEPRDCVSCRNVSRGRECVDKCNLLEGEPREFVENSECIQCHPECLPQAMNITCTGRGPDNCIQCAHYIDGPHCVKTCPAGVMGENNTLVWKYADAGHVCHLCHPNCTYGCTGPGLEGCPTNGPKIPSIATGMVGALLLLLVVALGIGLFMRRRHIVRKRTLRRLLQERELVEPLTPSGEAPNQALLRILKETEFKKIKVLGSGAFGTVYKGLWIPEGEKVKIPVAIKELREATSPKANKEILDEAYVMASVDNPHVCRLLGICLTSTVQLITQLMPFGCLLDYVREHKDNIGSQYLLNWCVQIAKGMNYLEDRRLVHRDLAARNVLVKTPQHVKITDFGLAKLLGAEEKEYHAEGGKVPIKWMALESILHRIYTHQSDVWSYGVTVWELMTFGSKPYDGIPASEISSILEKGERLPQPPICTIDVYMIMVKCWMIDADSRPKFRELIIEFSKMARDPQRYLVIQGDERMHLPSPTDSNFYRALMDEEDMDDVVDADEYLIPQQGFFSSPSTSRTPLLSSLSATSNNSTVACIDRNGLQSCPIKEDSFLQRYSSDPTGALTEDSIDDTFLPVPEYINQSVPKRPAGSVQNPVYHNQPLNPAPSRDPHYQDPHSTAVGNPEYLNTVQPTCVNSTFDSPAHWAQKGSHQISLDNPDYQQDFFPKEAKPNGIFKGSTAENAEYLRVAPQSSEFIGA
EGFR (human), sequence (P00533 whole entry, looked up): as above
MAPK14, sequence (Q16539 whole entry, looked up): as the sequence (Q16539 whole entry, looked up) above
EGFR (murine), sequence (P00533 whole entry, looked up): as the sequence (P00533 whole entry, looked up) above

COc1cccc2sc3c(Nc4cccc(Br)c4)ncnc3c12
inhibition (EGFR [1]): 36%

CN(C)CCCN(C)c1ccc2ncn(-c3cccc(NC(=O)c4ccnc(N5CCOCC5)c4)c3)c(=O)c2c1
IC50 (MAPK14 (human) [2]): 50 nM
IC50 (MAPK14 (human) [3]): 5000 nM

C=CC(=O)Nc1ccc2c(Nc3cccc(Br)c3)ncnc2c1
IC50 (EGFR (human) [4]): 6.4 nM

Cn1c(=O)c(-c2c(Cl)cccc2Cl)cc2cnc(N)cc21
IC50 (EGFR (human) [5]): < 50000 nM

COc1cccc(-c2cc(=O)c3ccccc3o2)c1N
activity (MAPK14 (rat)): 111%
activity (CDK2 [6]): 95%
IC50 (MAPK14 [7]): 2000 nM

CC(C)(C)c1cc(/C=C(\C#N)S(=O)(=O)Cc2cccc(C(F)(F)F)c2)cc(C(C)(C)C)c1O
IC50 (EGFR (murine) [8]): > 100000 nM

C=C1CC(C)OC(=O)c2c(O)cc(OC)cc2C(=C)C(=C)CC(O)C(O)C(=O)C1=C (configuration not stated)
IC50 (EGFR (human) [9]): > 30000 nM

Fc1ccc(Nc2ncnc3cnc(NN4CCOCC4)nc23)cc1Cl
IC50 (EGFR (human) [10]): 100 nM

CC[C@]1(O)C[C@@H]2CN(CCc3c([nH]c4ccccc34)[C@@](C(=O)OC)(c3cc4c(cc3OC)N(C=O)[C@H]3[C@@](O)(C(=O)OC)[C@H](OC(C)=O)[C@]5(CC)C=CCN6CC[C@]43C65)C2)C1 (some centres not stated)
activity (MAPK14 (murine) [11]): 120%
activity (MAPK14 (murine) [12]): 53.3%

COc1cc(Nc2ccnc(Nc3ccc(COc4ccccc4)cc3)n2)cc(OC)c1OC
IC50 (EGFR [13]): ≥ 10000 nM

Clc1cccc(Nc2ncnc3ccccc23)c1
Ki (EGFR [14]): 16 to 32 nM
Ki (EGFR [15]): 16 to 32 nM
IC50 (EGFR [16]): 75 nM

O=[N+]([O-])c1cccc(Cl)c1-c1nc(-c2ccncc2)c(-c2ccc(Cl)cc2)[nH]1
IC50 (EGFR [17]): 290 nM

O=C(Nc1cc(-c2ccccc2)n[nH]1)c1ccccc1
IC50 (EGFR (human) [18]): > 30000 nM

COc1cccc(-c2cn(-c3ccc(CCN(C)CCO)cc3)c3ncncc23)c1
IC50 (EGFR [19]): 300 nM
IC50 (EGFR [20]): 10000 nM

O=C(/C=C/c1ccc(O)c(O)c1)c1ccc(O)cc1O
IC50 (EGFR [21]): 16000 nM

C[C@@H]1C[C@H]2[C@@H]3CCC4=CC(=O)C=C[C@]4(C)[C@@]3(F)[C@@H](O)C[C@]2(C)[C@@]1(O)C(=O)CO
inhibition [22]: 80%
inhibition [23]: 40%

COC(=O)[C@@]1(Cc2ccc(O)c(CC=C(C)C)c2)OC(=O)C(O)=C1c1ccc(O)cc1
IC50 (MAPK14 [24]): 94000 nM
IC50 (EGFR [25]): > 590000 nM

c1ccc2c(c1)CCc1c-2n[nH]c1-c1ccncc1
IC50 (EGFR [26]): > 50000 nM
IC50 (EGFR [27]): > 50000 nM

CN(C)C[C@H]1CCn2c(c(C3=C(c4cn(C)c5ccccc45)C(=O)NC3=O)c3ccccc32)C1
IC50 (EGFR [28]): > 100000 nM

COc1cc2ncnc(Nc3ccc(F)c(Cl)c3)c2cc1OCCC1OCCO1
ED50 (EGFR (human) [29]): 50 mg/kg

N#C/C(=C\c1ccc2c(c1)OCO2)c1ccccn1
IC50 (EGFR (human) [30]): 1000 nM

CC(C)=CCNc1ncnc2[nH]cnc12
IC50 (CDK2 [31]): 50000 nM

Cc1ccc(NC(=O)c2ccc(CN3CCN(C)CC3)cc2)cc1Nc1nccc(-c2cccnc2)n1
IC50 (EGFR (murine) [32]): 12700 nM

C/C=C/C(=O)Nc1ccc2c(Nc3cccc(Br)c3)ncnc2c1
IC50 (EGFR [33]): 0.68 nM

CO[C@@H]1[C@@H]2C(=C3CCC(=O)c4c(O)ccc2c43)c2cccc(O)c2[C@@H]1O
IC50 (EGFR [34]): 20 to 400 nM

CNc1cc2ncnc(Nc3cccc(Br)c3)c2cc1N
IC50 (EGFR (human) [35]): 1000 to 4360 nM
IC50 (EGFR (human) [36]): 39.8 to 1580 nM
IC50 (EGFR (human) [37]): 8.32 to 6920 nM
IC50 (EGFR (human) [38]): 0.57 to 1.9 nM
IC50 (EGFR (human) [39]): 1000 to 10000 nM

O=C1Nc2ccccc2/C1=C/c1ccc(-n2cccc2)cc1
IC50 (EGFR (mouse)): 17000 nM

N#CC(=Cc1cccnc1)c1cc(Cl)cc(Cl)c1
IC50 (EGFR [40]): 100 nM

COc1cc(O)c2c(=O)c(-c3cccc(Cl)c3)cn(CC(N)=O)c2c1
IC50 (EGFR [41]): 23 nM

C=CC(=O)Nc1ccc2ncnc(N(C)C)c2c1
IC50 (EGFR (human) [42]): 910 nM
IC50 (EGFR (human) [43]): > 10000 nM

Nc1ncc2cc(-c3c(Cl)cccc3Cl)c(NC(=S)NCCCN3CCOCC3)nc2n1
inhibition (EGFR [44]): 105%

Cn1c2ccccc2c2c3c(c4c5ccccc5n(CCC#N)c4c21)CNC3=O
IC50 (MAPK14 (human) [45]): < 25 nM
